Measured values reported in patent publication US8791108B2, “Inhibitors of human immunodeficiency virus replication” (priority 2011, dated 2014).
Read-outs that look alike come from different tables or passages of the source.

System: recombinant NL-Rluc virus
Experiment: Inhibition of HIV replication (NL-RLuc luciferase reporter virus, MT-2 cells)
Format: cell-based
Settings: Human immunodeficiency virus 1, MT2, 120 h

Cc1cc(CNC(=O)c2cc3nc(C)c([C@H](OC(C)(C)C)C(=O)O)c(N4CCC(C)(C)CC4)n3n2)ccc1F [Example 151, (S)-2-(tert-Butoxy)-2-(7-(4,4-dimethylpiperidin-1-yl)-2-((4-fluoro-3-methylbenzyl)carbamoyl)-5-methylpyrazolo[1,5-a]pyrimidin-6-yl)acetic acid]
EC50 (read-out: Activity): < 0.1 µM

Cc1nc2cc(C(=O)NCCC(C)(C)C)nn2c(N2CCC(C)(C)CC2)c1[C@H](OC(C)(C)C)C(=O)O [Example 152, (S)-2-(tert-Butoxy)-2-(2-((3,3-dimethylbutyl)carbamoyl)-7-(4,4-dimethylpiperidin-1-yl)-5-methylpyrazolo[1,5-a]pyrimidin-6-yl)acetic acid]
EC50 (read-out: Activity): < 0.1 µM
EC50 (read-out: EC50 μM): 0.03 µM
